{
  "source": "patent US5859037A",
  "about": "“Sulfonylurea-glitazone combinations for diabetes” (Warner-Lambert Company, priority 1997, dated 1999)",
  "key": {"[1]": {"system": "non-insulin dependent diabetes mellitus (NIDDM)", "test": "Glycemic control (FSG, HbA1c, responders) in 52-week double-blind clinical study", "format": "in vivo, patients", "description": "The method of treating diabetes employing a combination of a sulfonylurea and a glitazone has been established in a long-term controlled clinical evaluation. The study determined the efficacy and safety of troglitazone alone and in combination with the sulfonylurea glyburide for the treatment of non-insulin dependent diabetes mellitus (NIDDM). This study targeted the segment of the NIDDM population in which the disease state has progressed to a point where maximum doses of sulfonylureas no longer produce adequate glycemic control. […] Since the unstimulated (absence of sulfonylurea) insulin secretory capacity of the beta cells is very low in this population, reversing insulin resistance alone would be of partial benefit. Therefore, maintaining a level of stimulated insulin secretion with a sulfonylurea while adding troglitazone to improve insulin sensitivity could provide a level of glycemic control unattainable by either medication alone. […] Long-term safety was also an objective of this study, assessed by adverse events and clinical laboratory data. This was a 12-month, double-blind, randomized, parallel-group, active-control, multicenter study design (FIG. 1). […] The primary efficacy parameters included endpoints related to glucose homeostasis: FSG and HbA1c. The change from baseline in these parameters at Week 52 compared to active control (glyburide) was the primary measure of efficacy. For patients terminating early from the study, their last observation was carried forward (LOCF) to Week 52. A decrease in these parameters was indicative of an improvement in glycemic control. Efficacy analysis was performed on 2 patient populations, intent-to-treat and completers. […] Patients withdrawing from the study before Week 52 were included in the analysis using the LOCF procedure; the last measurement on treatment was substituted for the missing Week 52 measurement. The intent-to-treat patient sample was the primary sample for assessing efficacy. Completers comprised patients in the intent-to-treat sample who completed Week 52. The analysis of change from baseline to Week 52 was performed using analysis of covariance (ANCOVA). The primary model included effects due to treatment and center and baseline as covariate. Treatment-by-baseline and treatment-by-center interactions were also examined in supplemental models. For the primary comparisons of glyburide versus each combination, step-down tests for linear trend in dose response were performed based on the primary model. For the remaining primary pairwise comparisons of glyburide versus each monotherapy, t-tests were performed using the MSE from the analysis of covariance (with a Bonferroni-Holm adjustment). For all comparisons with glyburide, 95 confidence intervals are provided using Dunnett's test. […] For each patient, the baseline measurement for a given parameter was defined as the measurement at Week 0. […] The frequency distribution (number and percentage) of responders were provided by treatment group and visit. For the set of primary treatment comparisons concerning glyburide versus combination therapy, step-down comparisons of responders in each treatment group versus the glyburide group were performed by sequential application of the Cochran-Mantel-Haenszel (CMH) test for linear trend with study centers as strata. […] The CMH test for general association were also used to perform the secondary treatment comparisons as supplemental analysis."}, "[2]": {"test": "Trough plasma concentrations of troglitazone", "format": "in vivo, patients", "details": "Week 12; for concentration at 2016 h: human, plasma, po, alone or + glyburide, read-out: Mean (% RSD) Trough Plasma Concentration of Troglitazone", "experimental": "Trough plasma concentrations of troglitazone were determined at Week 12. Blood samples (7 mL) were collected in heparinized glass tubes. Following centrifugation, plasma samples were transferred to plastic tubes and stored at -20° C. until assayed. Plasma samples were assayed at Corning Hazleton, Inc., PO Box 7545, Madison, Wis., 53707, using a validated liquid chromatographic method with electrochemical detection. The minimum quantitation limit for troglitazone was 5 ng/mL. Concentrations below the limit of quantitation were reported as zero. The analysts remained blinded to the treatment randomization code during sample analysis."}, "[3]": {"system": "postprandial glucose tolerance", "test": "2-hour meal tolerance test (postprandial glucose, insulin, C-peptide AUC)", "format": "in vivo, patients", "details": "Month 12, vs glyburide, p ≤0.05; all combination doses and 600 mg troglitazone monotherapy", "quoted_text": "The effect of treatment on the pattern of postprandial glucose tolerance (standard 2-hour meal tolerance test) was determined in a subset of patients.\nA 2-hour meal tolerance test to assess postprandial glucose and insulin excursions in response to a premeasured meal (breakfast) was conducted in a subset of patients at baseline, Week 24, and at the end of treatment. […] Additional parameters included total insulin and C-peptide. Analyses of the meal tolerance parameters were based on observations at the end of treatment; observations from Week 24 were not carried forward.\nSummary statistics for glucose, insulin, and C-peptide levels every 30 minutes for 2 hours were provided at baseline, and Months 6 and 12.\nThe change from baseline in each response variable was compared between treatment groups using analysis of covariance. The analysis included all patients who had baseline and Month 12 test data. The primary model included effects due to treatment and center and baseline as covariate. The 95% confidence interval for the treatment difference based on the primary model was provided for each pairwise comparison of treatment groups.\nMeal tolerance testing was performed in a subset of patients at baseline and at Months 6 and 12. Postprandial glucose, insulin, and C-peptide levels were determined at 30, 60, 90, and 120 minutes after a standard meal (Sustacal HC) (Table 13)."}, "[4]": {"details": "patients studied to date; cited from earlier work"}, "[5]": {"details": "Completers, Week 52, glyburide monotherapy (active control)"}, "[6]": {"details": "ITT, Week 52, glyburide (active control)"}, "[7]": {"details": "Completers, Week 52, troglitazone 200 mg, or 200 mg/12 mg in combination"}, "[8]": {"details": "Completers, Week 52, troglitazone 200 mg, or 200 mg/12 mg in combination, *p ≤ 0.05, **p ≤ 0.0001"}, "[9]": {"details": "Completers, Week 52, troglitazone 400 mg, or 400 mg/12 mg in combination"}, "[10]": {"details": "Completers, Week 52, troglitazone 600 mg, or 600 mg/12 mg in combination"}, "[11]": {"details": "ITT, Week 52, troglitazone 200 mg, or 200/12 mg in combination, *p ≤ 0.001 vs glyburide"}, "[12]": {"details": "ITT, Week 52, troglitazone 400 mg, or 400 mg/12 mg in combination, *p ≤ 0.001, **p ≤ 0.0001"}, "[13]": {"details": "ITT, Week 52, troglitazone 400 mg, or 400/12 mg in combination, *p ≤ 0.001 vs glyburide"}, "[14]": {"details": "ITT, Week 52, troglitazone 600 mg, or 600 mg/12 mg in combination, *p ≤ 0.001, **p ≤ 0.0001"}, "[15]": {"details": "ITT, Week 52, troglitazone 600 mg, or 600/12 mg in combination, *p ≤ 0.001 vs glyburide"}},
  "note": "Where two headings read alike, the source gives them in different places.",
  "data": [
    {"smiles": "COc1ccc(Cl)cc1C(=O)NCCc1ccc(S(=O)(=O)NC(=O)NC2CCCCC2)cc1", "note": "[Glyburide]", "values": [
      {"measurement": "Fasting Serum Glucose, Adjusted Mean Change From Baseline (SE)", "setting": "[1]; [5]", "result": "13.1 (8.6) mg/dL"},
      {"measurement": "Hemoglobin A1c, Adjusted Mean Change From Baseline (SE)", "setting": "[1]; [5]", "result": "0.78 (0.27) %"},
      {"measurement": "Fasting Serum Glucose, Adjusted Mean Change From Baseline (SE)", "setting": "[1]; ITT, Week 52 (Month 12), glyburide monotherapy (active control)", "result": "22.7 (6.9) mg/dL"},
      {"measurement": "≥30 mg/dL Reduction in FSG, Responders, N (%)", "setting": "[1]; [6]", "result": "10 (13) N (%)"},
      {"measurement": "≥1% Reduction in HbA1c, Responders, N (%)", "setting": "[1]; [6]", "result": "4 (5) N (%)"},
      {"measurement": "Hemoglobin A1c, Adjusted Mean Change From Baseline (SE)", "setting": "[1]; ITT, Week 52, glyburide monotherapy (active control)", "result": "0.90 (0.20) %"},
      {"measurement": "Hemoglobin A1c, Adjusted Mean Change From Baseline (SE)", "setting": "[1]; ITT, Week 52, glyburide monotherapy (active control), listed as glyburide", "result": 0.90, "unit": "%"},
      {"measurement": "patients with HbA1c of ≤7%", "setting": "[1]; Week 52, glyburide monotherapy", "result": 1, "unit": "%"},
      {"measurement": "patients with HbA1c of ≤8%", "setting": "[1]; end of study, glyburide (active control)", "result": 10, "unit": "%"}
    ]},
    {"smiles": "Cc1c(C)c2c(c(C)c1O)CCC(C)(COc1ccc(CC3SC(=O)NC3=O)cc1)O2", "note": "(centres unmarked) [Troglitazone]", "values": [
      {"measurement": "trough plasma troglitazone concentrations (result in words)", "setting": "[2]; dose dependence, mono versus combination", "result": "Mean trough troglitazone concentrations generally increased with increasing troglitazone doses"},
      {"measurement": "concentration at 2016 h", "setting": "[2]; 200 mg QD", "result": 145, "unit": "ng/mL"},
      {"measurement": "concentration at 2016 h", "setting": "[2]; 400 mg QD", "result": 238, "unit": "ng/mL"},
      {"measurement": "concentration at 2016 h", "setting": "[2]; 600 mg QD", "result": 285, "unit": "ng/mL"},
      {"measurement": "mean glucose AUC(0-2 hr) (result in words)", "setting": "[3]", "result": "decreased significantly (p ≤0.05) compared with glyburide"},
      {"measurement": "hypoglycemia (result in words)", "setting": "[4]", "result": "has not caused hypoglycemia"},
      {"measurement": "Fasting Serum Glucose, Adjusted Mean Change From Baseline (SE)", "setting": "[1]; [7]", "result": "13.4 (12.0) mg/dL"},
      {"measurement": "Hemoglobin A1c, Adjusted Mean Change From Baseline (SE)", "setting": "[1]; [7]", "result": "0.55 (0.38) %"},
      {"measurement": "Fasting Serum Glucose, Adjusted Mean Difference From Glyburide Monotherapy (SE)", "setting": "[1]; [8]", "result": "0.3 (14.6) mg/dL"},
      {"measurement": "Hemoglobin A1c, Adjusted Mean Difference From Glyburide Monotherapy (SE)", "setting": "[1]; [8]", "result": "-0.23 (0.46) %"},
      {"measurement": "Fasting Serum Glucose, Adjusted Mean Change From Baseline (SE)", "setting": "[1]; [9]", "result": "-20.5 (9.4) mg/dL"},
      {"measurement": "Hemoglobin A1c, Adjusted Mean Change From Baseline (SE)", "setting": "[1]; [9]", "result": "-0.25 (0.29) %"},
      {"measurement": "Fasting Serum Glucose, Adjusted Mean Change From Baseline (SE)", "setting": "[1]; [10]", "result": "-11.7 (9.8) mg/dL"},
      {"measurement": "Hemoglobin A1c, Adjusted Mean Change From Baseline (SE)", "setting": "[1]; [10]", "result": "-0.26 (0.30) %"},
      {"measurement": "Fasting Serum Glucose, Adjusted Mean Difference From Glyburide Monotherapy (SE)", "setting": "[1]; Completers, Week 52, troglitazone 600 mg, or 600 mg/12 mg in combination, *p ≤ 0.05, **p ≤ 0.0001", "result": "-24.8 (12.6) mg/dL"},
      {"measurement": "Fasting Serum Glucose, Adjusted Mean Change From Baseline (SE)", "setting": "[1]; ITT, Week 52 (Month 12), troglitazone 200 mg, or 200 mg/12 mg in combination", "result": "42.4 (7.0) mg/dL"},
      {"measurement": "Fasting Serum Glucose, Adjusted Mean Change From Baseline (SE)", "setting": "[1]; ITT, Week 52 (Month 12), troglitazone 400 mg, or 400 mg/12 mg in combination", "result": "20.6 (7.0) mg/dL"},
      {"measurement": "Fasting Serum Glucose, Adjusted Mean Change From Baseline (SE)", "setting": "[1]; ITT, Week 52 (Month 12), troglitazone 600 mg, or 600 mg/12 mg in combination", "result": "11.1 (7.1) mg/dL"},
      {"measurement": "FSG versus glyburide (result in words)", "setting": "[1]; ITT, Week 52, 400 and 600 mg troglitazone monotherapy", "result": "these decreases were not significant"},
      {"measurement": "Hemoglobin A1c, Adjusted Mean Change From Baseline (SE)", "setting": "[1]; ITT, Week 52, troglitazone 200 mg, or 200 mg/12 mg in combination", "result": "1.92 (0.20) %"},
      {"measurement": "Fasting Serum Glucose, Adjusted Mean Difference From Glyburide Monotherapy (SE)", "setting": "[1]; ITT, Week 52, troglitazone 200 mg, or 200 mg/12 mg in combination, *p ≤ 0.001, **p ≤ 0.0001", "result": "19.6 (9.7) mg/dL"},
      {"measurement": "Hemoglobin A1c, Adjusted Mean Change From Baseline (SE)", "setting": "[1]; ITT, Week 52, troglitazone 200 mg, or 200 mg/12 mg in combination, listed as troglitazone", "result": 1.92, "unit": "%"},
      {"measurement": "≥30 mg/dL Reduction in FSG, Responders, N (%)", "setting": "[1]; [11]", "result": "11 (14) N (%)"},
      {"measurement": "≥1% Reduction in HbA1c, Responders, N (%)", "setting": "[1]; [11]", "result": "3 (4) N (%)"},
      {"measurement": "Hemoglobin A1c, Adjusted Mean Change From Baseline (SE)", "setting": "[1]; ITT, Week 52, troglitazone 400 mg, or 400 mg/12 mg in combination", "result": "0.85 (0.20) %"},
      {"measurement": "Fasting Serum Glucose, Adjusted Mean Difference From Glyburide Monotherapy (SE)", "setting": "[1]; [12]", "result": "-2.2 (9.7) mg/dL"},
      {"measurement": "Hemoglobin A1c, Adjusted Mean Difference From Glyburide Monotherapy (SE)", "setting": "[1]; [12]", "result": "-0.05 (0.28) %"},
      {"measurement": "≥30 mg/dL Reduction in FSG, Responders, N (%)", "setting": "[1]; [13]", "result": "20 (26) N (%)"},
      {"measurement": "≥1% Reduction in HbA1c, Responders, N (%)", "setting": "[1]; [13]", "result": "13 (17) N (%)"},
      {"measurement": "Hemoglobin A1c, Adjusted Mean Change From Baseline (SE)", "setting": "[1]; ITT, Week 52, troglitazone 600 mg, or 600 mg/12 mg in combination", "result": "0.93 (0.20) %"},
      {"measurement": "Fasting Serum Glucose, Adjusted Mean Difference From Glyburide Monotherapy (SE)", "setting": "[1]; [14]", "result": "-11.6 (9.7) mg/dL"},
      {"measurement": "Hemoglobin A1c, Adjusted Mean Difference From Glyburide Monotherapy (SE)", "setting": "[1]; [14]", "result": "0.03 (0.28) %"},
      {"measurement": "≥30 mg/dL Reduction in FSG, Responders, N (%)", "setting": "[1]; [15]", "result": "18 (24) N (%)"},
      {"measurement": "≥1% Reduction in HbA1c, Responders, N (%)", "setting": "[1]; [15]", "result": "8 (11) N (%)"},
      {"measurement": "HbA1c versus glyburide monotherapy (result in words)", "setting": "[1]; completers, 400 and 600 mg troglitazone monotherapy, p ≤0.05", "result": "HbA1c decreased significantly (p ≤0.05) compared with glyburide monotherapy"}
    ]}
  ]
}
